Results from patent publication US20040014681A1, “Method for treating dermatoses and tissue damage” (priority 2002, published 2004).

What was measured:
[1] = Case examples: topical treatment of contact dermatitis to jewelry; type: in vivo, human; conditions: Case 5, adult, recurring red oozing dermatitis under gold and stone ring
Protocol: (§1) The following non-limiting case examples are presented to further illustrate the present invention: In the following examples, unless otherwise stated, the ointment contained about 0.15-0.22 mg of topiramate per ml of ointment (Thermaderm, an aqueous vanishing cream emollient) and sodium bicarbonate in an amount to provide a pH of about 7.8-8.
Case 5: Contact dermatitis to jewelry. […] This was usually treated with topical 0.1% mometasone furoate once daily for six or seven days with clearing of the lesion.
Case 6. Contact dermatitis to jewelry. An adult presented with a recurring red oozing dermatitis under a tight fitting silver/gold stone bracelet on their left wrist occurring especially during the winter and usually treated with topical corticosteroids over a five day period. Topiramate cream/ointment was applied daily with complete clearing in two days.

[2] = Case examples: topical treatment of poison ivy lesions; type: in vivo, human; conditions: Case 4, young person, poison ivy lesions on back, once a day application
Protocol: as §1
Case 3: Poison Ivy—A young child with known sensitivity to poison ivy presents with typical raised red vesicular lesions on their hands and left forearm. Topiramate cream/ointment was applied daily with the disappearance of lesions after 3 days.
Case 4: Poison Ivy—A young person having a history of extreme sensitivity to poison ivy presented with the entire right lower quadrant of their back covered with red, vesicular, and oozing lesions. These lesions cleared after four days of once a day application of Topiramate, at which time the application was stopped, leaving the skin dry with dead scales/scabs. The patient was seen four days later in this condition and began to apply Topirmate cream/lotion ever other day with complete resolution over the next six days.

[3] = adjunctive therapy or monotherapy; cited from earlier work
[4] = several rodent models of epilepsy and an animal model of kindled epilepsy; cited from earlier work

Compound | time until clearing of the lesion [1] | time until lesions cleared [2] | efficacy in clinical trials of human epilepsy [3] | block of seizures [4]
C[C@@H]1C[C@H]2[C@@H]3CCC4=CC(=O)C=C[C@]4(C)[C@@]3(Cl)[C@@H](O)C[C@]2(C)[C@@]1(OC(=O)c1ccco1)C(=O)CCl [mometasone furoate] | six or seven |  |  | 
CC1(C)O[C@@H]2[C@@H](CO[C@@]3(COS(N)(=O)=O)OC(C)(C)O[C@@H]23)O1 [topiramate, 2,3:4,5-bis-O-(1-methylethylidence)-β-D-fructopyranose sulfamate] |  | four | effective as adjunctive therapy or as monotherapy | effectively block seizures
